# Reference: patent US11969419B2, “Method of treating cancer” (Exelixis, Inc., priority 2010, dated 2024)
# How the values were obtained:
# xenograft tumor models = conditions: cited from earlier work
# tumor cells = conditions: cited from earlier work
# [1] = phase 1 clinical study; cited from earlier work
# [2] = system: pancreatic neuroendocrine tumor model; conditions: murine pancreatic neuroendocrine tumor model; cited from earlier work
# endothelial cells = conditions: cited from earlier work
# [3] = system: castration-resistant prostate cancer (CRPC) with bone metastases; assay: Adaptive phase 2 trial (NCT00940225), case studies of the first three CRPC patients with bone metastases, Compound 1 100 mg; assay type: in vivo, human; conditions: for Bone scan (best response) / Pain (best response): preliminary best response
# Protocol: In 2000, local disease recurrence was treated with radiation therapy. […] CAB with leuprolide and bicalutanide was initiated. […] All patients provided informed consent before study screening.
# [4] = three metastatic CRPC patients, summary
smiles,measurement,setting,value
"COc1cc2nccc(Oc3ccc(NC(=O)C4(C(=O)Nc5ccc(F)cc5)CC4)cc3)c2cc1OC [Compound 1, N-(4-{[6,7-bis(methyloxy)quinolin-4-yl]oxy}phenyl)-N′-(4-fluorophenyl)cyclopropane-1,1-dicarboxamide]",Tumor regression,xenograft tumor models,causes tumor regression
same,Apoptosis of tumor cells,tumor cells,rapidly induces apoptosis
same,Most commonly observed adverse events,[1],"fatigue, diarrhea, anorexia, rash, and palmar-plantar erythrodysesthesia"
same,Tolerability,[1],generally well-tolerated
same,Overall survival,[2],substantially improves
same,Tumor invasiveness and metastasis,[2],significantly reduces
same,Apoptosis of endothelial cells,endothelial cells,rapidly induces apoptosis
same,Bone scan: radiotracer uptake by bone metastases,"[3]; Patient 1, Week 6",dramatic decrease in radiotracer uptake
same,CT scan response category,"[3]; Patient 1, Week 6",partial response (PR)
same,CT scan: decrease in measurable target lesions,"[3]; Patient 1, Week 6",33%
same,Bone lesions on bone scan,"[3]; Patient 1, Week 12, stable through Week 18",near complete resolution of bone lesions
same,Adverse event leading to withdrawal,"[3]; Patient 1, Week 18",Grade 3 diarrhea
same,Bone pain,"[3]; Patient 1, four weeks after start",significant reduction in bone pain
same,Bone scan (best response),[3]; Patient 1,Complete resolution
same,Pain (best response),[3]; Patient 1,Improvement
same,Bone pain,"[3]; Patient 2, Week 4",reduction in bone pain
same,Bone scan: radiotracer uptake by bone lesions,"[3]; Patient 2, Week 6",slight flair in radiotracer uptake
same,CT scan: decrease in target lesions,"[3]; Patient 2, Week 6",13%
same,Bone scan: radiotracer uptake,"[3]; Patient 2, Week 12",substantial reduction of radiotracer uptake
same,Bone scan (best response),[3]; Patient 2,Improvement
same,Pain (best response),[3]; Patient 2,Pain-free
same,Bone scan: radiotracer uptake,"[3]; Patient 3, Week 6",dramatic reduction in radiotracer uptake
same,CT scan: decrease in measurable target lesions,"[3]; Patient 3, Week 6",43%
same,Bone lesions on bone scan,"[3]; Patient 3, Week 12",complete resolution of bone lesions
same,Pain,"[3]; Patient 3, after three weeks",complete resolution of pain
same,Bone scan (best response),[3]; Patient 3,Near resolution
same,Pain (best response),[3]; Patient 3,Pain-free
same,Bone pain,"[3]; all three patients, discussion",substantial reductions in bone pain
same,Soft tissue lesions,"[3]; all three patients, discussion",response or stabilization
same,Uptake of radiotracer on bone scan,"[3]; all three patients, discussion",striking decrease
same,Bone lesions,[3]; [4],near complete resolution of bone lesions
same,Bone pain,[3]; [4],marked reduction
same,Measurable disease,[3]; [4],reduction in measurable disease
same,Total serum alkaline phosphatase (tALP) levels,[3]; [4],marked reduction
